# ChEMBL document CHEMBL5338786, “In Silico-Guided Rational Drug Design and Synthesis of Novel 4-(Thiophen-2-yl)butanamides as Potent and Selective TRPV1 Agonists” (J Med Chem, 2023)
# Active and inactive are the calls of the source.
# Experiments:
# [1] = target: T1, Transient receptor potential cation channel subfamily A member 1 (Rattus norvegicus, UniProt Q6RI86); test: (§1) Agonist activity at rat recombinant TRPA1 expressed in HEK293 cells assessed as increase in intracellular calcium accumulation by Fluo4-AM based assay; format: cell-based
# [2] = target: T1, Transient receptor potential cation channel subfamily A member 1; test: Antagonist activity at rat recombinant TRPA1 expressed in HEK293 cells assessed as desensitization by measuring inhibition of allyl isothiocyanate induced intracellular calcium accumulation preincubated for 5 mins followed by allyl isothiocyanate stimulation by Fluo4-AM based assay; format: cell-based
# [3] = target: Transient receptor potential cation channel subfamily V member 4 (Rattus norvegicus) (UniProt Q9ERZ8); test: Agonist activity at rat recombinant TRPV4 expressed in HEK293 cells assessed as increase in intracellular calcium accumulation by measuring efficacy by Fluo4-AM based assay relative to ionomycin; format: cell-based; details: filed as agonist
# [4] = target: T2, Transient receptor potential cation channel subfamily V member 1 (Homo sapiens, UniProt Q8NER1); test: Agonist activity at human recombinant TRPV1 expressed in HEK293 cells assessed as increase in intracellular calcium level by Fluo4-AM based assay; format: cell-based
# [5] = target: Transient receptor potential cation channel subfamily A member 1 (Rattus norvegicus) (UniProt Q6RI86); test: as §1; format: cell-based
# [6] = target: T2, Transient receptor potential cation channel subfamily V member 1; test: Antagonist activity at human recombinant TRPV1 expressed in HEK293 cells assessed as desensitization by measuring inhibition of capsaicin-induced intracellular calcium accumulation preincubated for 5 mins followed by capsaicin stimulation by Fluo4-AM based assay; format: cell-based
# [7] = target: Transient receptor potential cation channel subfamily A member 1 (Rattus norvegicus) (UniProt Q6RI86); test: Agonist activity at rat recombinant TRPA1 expressed in HEK293 cells assessed as increase in intracellular calcium accumulation by measuring efficacy by Fluo4-AM based assay relative to allyl isothiocyanate; format: cell-based
# [8] = target: Transient receptor potential cation channel subfamily M member 8 (Rattus norvegicus, UniProt Q8R455); test: Antagonist activity at rat recombinant TRPM8 expressed in HEK293 cells assessed as desensitization by measuring inhibition of icilin induced intracellular calcium accumulation preincubated for 5 mins by Fluo4-AM based assay; format: cell-based
# [9] = Toxicity in C57BL/6J mouse assessed as alteration in nociceptive threshold at 0.0075 to 0.15 ug per paw, sc measured after 10 mins; format: organism-based; details: in vivo, dose 0.0075-0.15 µg
# [10] = system: HaCaT; test: Cytotoxicity against human HaCaT cells expressing TRPV1 receptors assessed as reduction in cell viability at 0.1 to 10 uM measured after 48 hrs by Alamar Blue assay; format: toxicity, cell-based; details: dose 0.1-10 µM
# [11] = system: HUVEC; test: Cytotoxicity against HUVEC cells expressing TRPV1 receptors assessed as reduction in cell viability at 0.1 to 10 uM measured after 48 hrs by Alamar Blue assay; format: toxicity, cell-based; details: human, dose 0.1-10 µM
# [12] = target: Transient receptor potential cation channel subfamily V member 4 (Rattus norvegicus, UniProt Q9ERZ8); test: Antagonist activity at rat recombinant TRPV4 expressed in HEK293 cells assessed as desensitization by measuring inhibition of GSK1016790A induced intracellular calcium accumulation preincubated for 5 mins by Fluo4-AM based assay; format: cell-based
# [13] = system: Mus musculus; test: Antinociceptive activity against formalin-induced nociception in C57BL/6J mouse assessed as total time of nociceptive response at 0.0075 ug per paw, sc pretreated for 10 min followed by formalin challenge and measured after 20 to 60 mins (reference value: 2.18 +/- 0.183 min); format: functional; details: dose 0.0075 µg, time 30-70 min
# [14] = system: Mus musculus; test: Antinociceptive activity against formalin-induced nociception in C57BL/6J mouse assessed as total time of nociceptive response at 0.15 ug per paw, sc pretreated for 10 min followed by formalin challenge and measured after 20 to 60 mins (reference value: 2.18 +/- 0.183 min); format: functional; details: dose 0.15 µg, time 30-70 min
# [15] = system: Mus musculus; test: Antinociceptive activity against formalin-induced nociception in C57BL/6J mouse assessed as total time of nociceptive response at 0.0015 ug per paw, sc pretreated for 10 min followed by formalin challenge and measured after 20 to 60 mins (reference value: 2.18 +/- 0.183 min); format: functional; details: dose 0.0015 µg, time 30-70 min
# Sequence of Transient receptor potential cation channel subfamily M member 8 (Q8R455 whole entry): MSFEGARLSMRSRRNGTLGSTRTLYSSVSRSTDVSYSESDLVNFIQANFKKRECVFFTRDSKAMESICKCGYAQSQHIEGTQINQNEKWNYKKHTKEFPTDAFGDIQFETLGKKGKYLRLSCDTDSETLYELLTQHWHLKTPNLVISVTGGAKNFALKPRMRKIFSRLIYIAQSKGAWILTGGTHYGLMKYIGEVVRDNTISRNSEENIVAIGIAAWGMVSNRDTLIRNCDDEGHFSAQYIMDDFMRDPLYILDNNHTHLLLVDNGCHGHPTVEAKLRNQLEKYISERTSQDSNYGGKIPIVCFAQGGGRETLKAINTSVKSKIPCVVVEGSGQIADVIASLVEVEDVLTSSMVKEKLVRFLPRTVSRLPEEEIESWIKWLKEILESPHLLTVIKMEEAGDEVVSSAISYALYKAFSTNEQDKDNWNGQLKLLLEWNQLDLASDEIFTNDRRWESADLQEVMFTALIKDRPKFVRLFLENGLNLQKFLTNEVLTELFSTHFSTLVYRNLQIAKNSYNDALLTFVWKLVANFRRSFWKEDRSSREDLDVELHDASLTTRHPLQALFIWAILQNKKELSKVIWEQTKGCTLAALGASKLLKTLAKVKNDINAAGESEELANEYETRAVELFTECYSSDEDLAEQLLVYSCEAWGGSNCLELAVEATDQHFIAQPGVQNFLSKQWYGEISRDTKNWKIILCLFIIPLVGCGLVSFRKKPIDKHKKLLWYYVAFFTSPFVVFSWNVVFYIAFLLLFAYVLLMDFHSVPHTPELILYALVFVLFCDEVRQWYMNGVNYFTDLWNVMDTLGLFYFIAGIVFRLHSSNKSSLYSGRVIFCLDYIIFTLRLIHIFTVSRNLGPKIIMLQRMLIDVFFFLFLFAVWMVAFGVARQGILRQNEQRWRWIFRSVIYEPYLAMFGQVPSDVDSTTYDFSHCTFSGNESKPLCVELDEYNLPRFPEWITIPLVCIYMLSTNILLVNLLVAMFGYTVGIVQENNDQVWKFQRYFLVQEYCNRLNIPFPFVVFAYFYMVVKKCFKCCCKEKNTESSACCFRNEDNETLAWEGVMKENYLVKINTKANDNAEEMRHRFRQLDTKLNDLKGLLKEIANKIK
# Sequence of Transient receptor potential cation channel subfamily V member 4 (Q9ERZ8 whole entry): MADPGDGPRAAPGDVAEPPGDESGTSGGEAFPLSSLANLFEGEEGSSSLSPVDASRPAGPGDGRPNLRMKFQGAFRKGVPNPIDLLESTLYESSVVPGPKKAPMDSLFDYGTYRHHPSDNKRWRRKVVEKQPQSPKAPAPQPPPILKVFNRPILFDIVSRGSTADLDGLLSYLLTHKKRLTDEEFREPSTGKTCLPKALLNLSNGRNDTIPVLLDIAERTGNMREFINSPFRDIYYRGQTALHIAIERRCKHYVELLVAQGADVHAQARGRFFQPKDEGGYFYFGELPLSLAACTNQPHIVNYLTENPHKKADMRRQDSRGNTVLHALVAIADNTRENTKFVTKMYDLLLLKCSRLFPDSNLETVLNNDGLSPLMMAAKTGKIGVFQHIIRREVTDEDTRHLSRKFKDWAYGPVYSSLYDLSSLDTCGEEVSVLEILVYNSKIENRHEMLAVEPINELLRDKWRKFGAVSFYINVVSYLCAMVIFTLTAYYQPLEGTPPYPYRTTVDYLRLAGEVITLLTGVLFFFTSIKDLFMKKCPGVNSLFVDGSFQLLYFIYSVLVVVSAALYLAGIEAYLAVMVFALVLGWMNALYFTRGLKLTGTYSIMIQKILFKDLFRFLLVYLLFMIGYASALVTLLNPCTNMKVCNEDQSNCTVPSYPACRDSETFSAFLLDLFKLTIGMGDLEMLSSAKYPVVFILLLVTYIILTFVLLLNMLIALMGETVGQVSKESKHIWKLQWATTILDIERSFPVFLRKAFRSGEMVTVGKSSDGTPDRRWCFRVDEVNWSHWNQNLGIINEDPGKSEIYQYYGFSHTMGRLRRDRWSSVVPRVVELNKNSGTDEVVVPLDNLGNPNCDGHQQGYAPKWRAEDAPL
# Sequence of Transient receptor potential cation channel subfamily A member 1 (Rattus norvegicus) (Q6RI86 whole entry): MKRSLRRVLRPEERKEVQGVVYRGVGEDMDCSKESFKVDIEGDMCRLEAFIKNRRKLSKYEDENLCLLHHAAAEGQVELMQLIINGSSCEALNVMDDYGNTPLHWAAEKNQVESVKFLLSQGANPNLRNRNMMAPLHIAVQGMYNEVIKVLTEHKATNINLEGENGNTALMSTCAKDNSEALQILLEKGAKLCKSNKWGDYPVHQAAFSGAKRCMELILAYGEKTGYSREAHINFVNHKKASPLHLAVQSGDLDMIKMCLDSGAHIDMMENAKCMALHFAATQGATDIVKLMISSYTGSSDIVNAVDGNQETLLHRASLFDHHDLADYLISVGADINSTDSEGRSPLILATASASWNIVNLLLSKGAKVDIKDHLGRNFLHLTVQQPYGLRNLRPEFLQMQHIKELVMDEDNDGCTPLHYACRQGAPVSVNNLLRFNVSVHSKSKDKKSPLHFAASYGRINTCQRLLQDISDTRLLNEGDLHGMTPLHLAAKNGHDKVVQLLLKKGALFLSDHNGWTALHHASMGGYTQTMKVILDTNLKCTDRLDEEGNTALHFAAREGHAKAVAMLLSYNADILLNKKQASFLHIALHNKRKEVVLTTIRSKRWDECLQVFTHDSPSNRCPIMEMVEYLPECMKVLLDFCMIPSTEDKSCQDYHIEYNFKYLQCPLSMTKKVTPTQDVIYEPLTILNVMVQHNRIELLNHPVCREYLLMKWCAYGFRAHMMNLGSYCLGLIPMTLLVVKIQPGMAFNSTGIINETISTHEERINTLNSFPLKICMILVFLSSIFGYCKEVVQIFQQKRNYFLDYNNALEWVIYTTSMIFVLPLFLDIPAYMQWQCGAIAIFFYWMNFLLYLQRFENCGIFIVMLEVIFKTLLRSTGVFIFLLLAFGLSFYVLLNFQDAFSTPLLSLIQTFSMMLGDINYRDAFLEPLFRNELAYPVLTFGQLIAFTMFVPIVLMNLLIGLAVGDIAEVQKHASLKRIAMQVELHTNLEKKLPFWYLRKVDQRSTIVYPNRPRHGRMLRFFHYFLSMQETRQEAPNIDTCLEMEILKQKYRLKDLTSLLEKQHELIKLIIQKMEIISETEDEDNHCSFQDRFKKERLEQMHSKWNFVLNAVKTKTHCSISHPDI
# T1 sequence (Q6RI86 whole entry): as above
# T2 sequence (Q8NER1 whole entry): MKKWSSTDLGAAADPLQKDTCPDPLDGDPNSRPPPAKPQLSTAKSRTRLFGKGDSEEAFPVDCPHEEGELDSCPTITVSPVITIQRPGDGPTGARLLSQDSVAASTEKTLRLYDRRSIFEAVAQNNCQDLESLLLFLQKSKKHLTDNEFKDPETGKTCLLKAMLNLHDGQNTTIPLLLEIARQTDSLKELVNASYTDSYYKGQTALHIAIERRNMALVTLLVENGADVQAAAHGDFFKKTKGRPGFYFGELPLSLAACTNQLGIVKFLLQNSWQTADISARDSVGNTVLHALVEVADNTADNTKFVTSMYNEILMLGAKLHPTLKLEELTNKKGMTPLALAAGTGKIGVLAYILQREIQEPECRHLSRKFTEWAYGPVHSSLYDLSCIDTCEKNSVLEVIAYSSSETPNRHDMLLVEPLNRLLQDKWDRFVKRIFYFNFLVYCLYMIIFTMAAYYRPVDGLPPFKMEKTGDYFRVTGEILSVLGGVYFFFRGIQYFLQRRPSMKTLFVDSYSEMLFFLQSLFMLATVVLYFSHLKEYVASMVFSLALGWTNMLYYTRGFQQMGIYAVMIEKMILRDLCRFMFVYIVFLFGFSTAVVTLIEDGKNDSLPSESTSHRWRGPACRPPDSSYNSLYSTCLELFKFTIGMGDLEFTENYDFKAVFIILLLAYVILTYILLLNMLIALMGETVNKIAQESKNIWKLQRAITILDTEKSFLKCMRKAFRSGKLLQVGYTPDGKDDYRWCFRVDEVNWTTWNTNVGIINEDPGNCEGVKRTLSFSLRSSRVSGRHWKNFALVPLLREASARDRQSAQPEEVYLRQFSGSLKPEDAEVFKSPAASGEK
# Sequence of Transient receptor potential cation channel subfamily V member 4 (Rattus norvegicus) (Q9ERZ8 whole entry): as the sequence (Q9ERZ8 whole entry) above
compound,measurement,setting,value
O=C(CCCc1ccccc1)NCc1ccc(Cl)c(Cl)c1,EC50,[1],10.7 µM
same,IC50,[2],11.9 µM
O=C(CCCc1ccc(-c2ccccc2)s1)NCc1ccc(O)cc1,IC50,[2],> 50 µM
CC(C)C[C@H](NC(=O)c1cc2ccccc2s1)C(=O)N1CCN(C(=O)[C@H](CO)NS(=O)(=O)c2ccc(Cl)cc2Cl)CC1,Efficacy,[3],88.5%
O=C(CCCc1ccc(-c2cccnc2)s1)NCc1ccc(Cl)c(Cl)c1,EC50,[1],10.4 µM
same,IC50,[2],> 50 µM
O=C(CCCc1ccc(I)s1)NCc1ccc(Cl)c(Cl)c1,EC50,[1],> 50 µM
same,IC50,[2],19.2 µM
O=C(CCCc1ccc(-c2cccnc2)s1)NCCc1ccc(O)c(O)c1,EC50,[4],> 10 µM
same,Activity,[5],inactive
same,IC50,[2],> 100 µM
same,IC50,[6],> 10 µM
same,Efficacy,[7],< 10%
O=C(CCCc1ccccc1)NCc1ccccc1,EC50,[4],> 50 µM
same,Activity,[5],inactive
same,IC50,[2],> 100 µM
same,IC50,[6],> 100 µM
same,Efficacy,[7],< 10%
O=C(CCCc1ccc(-c2cccnc2)s1)Nc1ccc(O)cc1,IC50,[2],> 100 µM
COc1ccc(CNC(=O)CCCc2ccc(-c3cccnc3)s2)cc1,EC50,[4],> 50 µM
same,EC50,[1],> 50 µM
same,IC50,[2],> 50 µM
same,IC50,[6],> 50 µM
same,Efficacy,[7],21%
COc1cc(CNC(=O)CCCc2ccccc2)ccc1O,EC50,[1],27.2 µM
same,IC50,[2],44.5 µM
O=C(CCCc1cccs1)NCc1ccccc1,IC50,[2],> 100 µM
O=C(CCCc1ccc(-c2cccnc2)s1)NCc1ccccc1,EC50,[4],> 10 µM
same,Activity,[5],inactive
same,IC50,[2],> 100 µM
same,IC50,[6],> 100 µM
same,Efficacy,[7],< 10%
O=C(CCCc1ccc(-c2cccnc2)s1)NCc1ccc(O)cc1,EC50,[1],27.1 µM
same,IC50,[2],> 50 µM
O=C(CCCc1ccc(I)s1)Nc1ccc(O)cc1,EC50,[1],30.3 µM
same,IC50,[2],44.1 µM
O=C(CCCc1ccccc1)NCc1ccc(O)cc1,IC50,[2],> 100 µM
O=C(CCCc1ccc(I)s1)NCc1ccc(O)cc1,IC50,[2],> 100 µM
O=C(CCCc1ccc(I)s1)NCCc1ccc(O)c(O)c1,EC50,[4],1.15 µM
same,Activity,[5],inactive
same,IC50,[2],> 100 µM
same,IC50,[6],0.46 µM
same,Efficacy,[7],< 10%
O=C(CCCc1ccc(-c2ccccc2)s1)NCc1ccccc1,IC50,[2],> 100 µM
COc1cc(CNC(=O)CCCc2ccc(I)s2)ccc1O,IC50,[8],16.8 µM
same,IC50,[2],> 50 µM
same,Activity,[9],Non-Toxic
same,Activity,[10],Non-Toxic
same,Activity,[11],Non-Toxic
same,IC50,[12],> 50 µM
O=C(CCCc1ccc(I)s1)NCc1ccccc1,IC50,[2],> 100 µM
COc1ccc(CNC(=O)CCCc2ccc(I)s2)cc1,IC50,[2],> 100 µM
O=C(CCCc1ccc(-c2ccccc2)s1)Nc1ccc(O)cc1,IC50,[2],> 50 µM
COc1cc(CNC(=O)CCCc2ccc(-c3ccccc3)s2)ccc1O,IC50,[8],13.8 µM
same,EC50,[1],18.7 µM
same,IC50,[2],33.7 µM
same,IC50,[12],27.6 µM
O=C(CCCc1ccccc1)Nc1ccc(O)cc1,IC50,[2],> 10 µM
COc1cc(CNC(=O)CCCc2ccc(-c3cccnc3)s2)ccc1O,IC50,[8],> 100 µM
same,IC50,[2],> 100 µM
same,Activity,[9],Non-Toxic
same,Time,[13],1.95 min
same,Time,[14],0.618 min
same,Activity,[10],Non-Toxic
same,Time,[15],0.758 min
same,Activity,[11],Non-Toxic
same,IC50,[12],> 100 µM
COc1ccc(CNC(=O)CCCc2ccccc2)cc1,IC50,[2],> 100 µM
O=C(CCCc1ccc(-c2ccccc2)s1)NCc1ccc(Cl)c(Cl)c1,EC50,[1],12 µM
same,IC50,[2],> 50 µM
O=C(CCCc1ccccc1)NCCc1ccc(O)c(O)c1,EC50,[4],2.63 µM
same,Activity,[5],inactive
same,IC50,[2],> 10 µM
same,IC50,[6],5.84 µM
same,Efficacy,[7],< 10%
